Laboratory results reported in the NIST ThermoML archive (doi:10.1016/j.jct.2009.04.002).
Several values for one entry are separate records, joined by “and”; a condition that tells them apart may be missing. Identical values can stand only once.

Conditions: Liquid

CC(C)CCCCCCCOC(=O)c1ccccc1C(=O)OCCCCCCCC(C)C
Conditions	mass density, Vibrating tube method	viscosity, Falling or rolling sphere viscometry
333.15 K, 10000 kPa	944.8 kg/m3 and 945.3 kg/m3	–
333.15 K, 20000 kPa	951 kg/m3 and 951.5 kg/m3 and 950.9 kg/m3	23.5 mPa·s and 22.4 mPa·s and 23.2 mPa·s
333.15 K, 30000 kPa	956.7 kg/m3 and 957.1 kg/m3 and 956.6 kg/m3	28.2 mPa·s and 26.8 mPa·s and 27.8 mPa·s
333.15 K, 40000 kPa	962.1 kg/m3 and 962.5 kg/m3 and 962 kg/m3	33.7 mPa·s and 31.9 mPa·s and 33.1 mPa·s
333.15 K, 50000 kPa	967.2 kg/m3 and 967.6 kg/m3 and 967.1 kg/m3	40 mPa·s and 37.8 mPa·s and 39.3 mPa·s
333.15 K, 60000 kPa	972.1 kg/m3 and 972.5 kg/m3 and 972 kg/m3	47.5 mPa·s and 44.5 mPa·s and 46.6 mPa·s
333.15 K, 70000 kPa	976.7 kg/m3 and 977.1 kg/m3 and 976.6 kg/m3	–
348.15 K, 100 kPa	927.9 kg/m3 and 928.3 kg/m3 and 927.7 kg/m3	–
348.15 K, 1000 kPa	928.5 kg/m3 and 929 kg/m3 and 928.4 kg/m3	–
348.15 K, 5000 kPa	931.4 kg/m3 and 931.8 kg/m3 and 931.2 kg/m3	–
348.15 K, 10000 kPa	934.8 kg/m3 and 935.3 kg/m3 and 934.7 kg/m3	–
348.15 K, 20000 kPa	941.3 kg/m3 and 941.8 kg/m3 and 941.2 kg/m3	–
348.15 K, 30000 kPa	947.3 kg/m3 and 947.8 kg/m3	–
348.15 K, 40000 kPa	953 kg/m3 and 953.5 kg/m3 and 952.9 kg/m3	–
348.15 K, 50000 kPa	958.4 kg/m3 and 958.9 kg/m3	–
348.15 K, 60000 kPa	963.6 kg/m3 and 964 kg/m3 and 963.5 kg/m3	–
348.15 K, 70000 kPa	968.4 kg/m3 and 968.8 kg/m3 and 968.3 kg/m3	–
353.15 K, 100 kPa	–	8.42 mPa·s and 8.04 mPa·s and 8.35 mPa·s
353.15 K, 1000 kPa	–	8.54 mPa·s and 8.16 mPa·s and 8.48 mPa·s
353.15 K, 5000 kPa	–	9.14 mPa·s and 8.7 mPa·s and 9.06 mPa·s
353.15 K, 10000 kPa	–	9.92 mPa·s and 9.43 mPa·s and 9.83 mPa·s
353.15 K, 20000 kPa	–	11.7 mPa·s and 11 mPa·s and 11.5 mPa·s
353.15 K, 30000 kPa	–	13.7 mPa·s and 12.9 mPa·s and 13.5 mPa·s
353.15 K, 40000 kPa	–	16 mPa·s and 15.1 mPa·s and 15.8 mPa·s
353.15 K, 50000 kPa	–	18.5 mPa·s and 17.5 mPa·s and 18.3 mPa·s
353.15 K, 60000 kPa	–	21.5 mPa·s and 20.3 mPa·s and 21.2 mPa·s
373.15 K, 100 kPa	909.5 kg/m3 and 910 kg/m3 and 909.4 kg/m3	5.05 mPa·s and 4.8 mPa·s and 5.09 mPa·s
373.15 K, 1000 kPa	911 kg/m3 and 911.6 kg/m3	5.12 mPa·s and 4.87 mPa·s and 5.16 mPa·s
373.15 K, 5000 kPa	914.3 kg/m3 and 914.8 kg/m3 and 914.2 kg/m3	5.44 mPa·s and 5.17 mPa·s and 5.47 mPa·s
373.15 K, 10000 kPa	918.1 kg/m3 and 918.6 kg/m3 and 918 kg/m3	5.86 mPa·s and 5.57 mPa·s and 5.89 mPa·s
373.15 K, 20000 kPa	925.3 kg/m3 and 925.9 kg/m3 and 925.2 kg/m3	6.79 mPa·s and 6.44 mPa·s and 6.8 mPa·s
373.15 K, 30000 kPa	931.9 kg/m3 and 932.5 kg/m3	7.83 mPa·s and 7.42 mPa·s
373.15 K, 40000 kPa	938.1 kg/m3 and 938.7 kg/m3	9 mPa·s and 8.52 mPa·s and 8.98 mPa·s
373.15 K, 50000 kPa	943.9 kg/m3 and 944.6 kg/m3 and 944 kg/m3	10.3 mPa·s and 9.75 mPa·s
373.15 K, 60000 kPa	949.5 kg/m3 and 950.1 kg/m3	11.7 mPa·s and 11.1 mPa·s
373.15 K, 70000 kPa	954.7 kg/m3 and 955.2 kg/m3 and 954.6 kg/m3	–
398.15 K, 100 kPa	892.2 kg/m3 and 892.8 kg/m3	–
398.15 K, 1000 kPa	892.8 kg/m3 and 893.5 kg/m3 and 892.9 kg/m3	–
398.15 K, 5000 kPa	896.4 kg/m3 and 896.9 kg/m3 and 896.3 kg/m3	–
398.15 K, 10000 kPa	900.6 kg/m3 and 901.1 kg/m3 and 900.5 kg/m3	–
398.15 K, 20000 kPa	908.6 kg/m3 and 909.1 kg/m3 and 908.5 kg/m3	–
398.15 K, 30000 kPa	915.8 kg/m3 and 916.4 kg/m3	–
398.15 K, 40000 kPa	922.5 kg/m3 and 923.2 kg/m3 and 922.6 kg/m3	–
398.15 K, 50000 kPa	928.8 kg/m3 and 929.5 kg/m3 and 928.9 kg/m3	–
398.15 K, 60000 kPa	934.8 kg/m3 and 935.5 kg/m3 and 934.9 kg/m3	–
398.15 K, 70000 kPa	940.4 kg/m3 and 941 kg/m3	–

Conditions	mass density, SVM3000 rotational viscometer	viscosity, Rotational Automated Viscometer
333.15 K	938.7 kg/m3 and 938.3 kg/m3	15.79 mPa·s and 16.02 mPa·s and 15.97 mPa·s
338.15 K	935.1 kg/m3 and 934.7 kg/m3	13.21 mPa·s and 13.4 mPa·s and 13.36 mPa·s
343.15 K	931.6 kg/m3 and 931.1 kg/m3	11.18 mPa·s and 11.34 mPa·s and 11.31 mPa·s
348.15 K	928 kg/m3 and 927.6 kg/m3	9.561 mPa·s and 9.696 mPa·s and 9.685 mPa·s
353.15 K	924.4 kg/m3 and 924.1 kg/m3	8.257 mPa·s and 8.376 mPa·s and 8.37 mPa·s
358.15 K	920.7 kg/m3 and 920.9 kg/m3 and 920.6 kg/m3	7.193 mPa·s and 7.3 mPa·s and 7.297 mPa·s
363.15 K	917.2 kg/m3 and 917.4 kg/m3 and 917 kg/m3	6.329 mPa·s and 6.414 mPa·s and 6.412 mPa·s
368.15 K	913.7 kg/m3 and 913.9 kg/m3 and 913.5 kg/m3	5.602 mPa·s and 5.677 mPa·s and 5.675 mPa·s
373.15 K	910.3 kg/m3 and 910.5 kg/m3 and 910 kg/m3	4.989 mPa·s and 5.059 mPa·s and 5.057 mPa·s
